Assay results reported in PubChem BioAssay AID1963958 (Molecular Pharmacology Branch, DTP, NCI, 2024).

Tested on: MDA-MB-231 multicell spheroids, viability
Test: Anticancer human tumor MDA-MB-231 cell line growth inhibition [PI3K];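 further: spheroids exposed to agents for seven days before reading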;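 on viability, T/C: percent of vehicle control luminescence with DMSO treated spheroids as 100%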
Conditions: for IC50: curve of first compound; for viability, T/C: stronger effect = lower value
In short: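 Spheroid viability read-out. Co-cultures contained the tumor line plus HUVEC and human MSCs. Each agent was paired with a PI3K inhibitor (inavolisib, alpelisib, duvelisib, copanlisib) across half-log dilutions starting at clinical Cmax, or at 10 microM when Cmax was unknown.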

[1] = second compound 0.00316 µM, first compound 0.0316 µM
[2] = second compound 0.00316 µM, first compound 0.1 µM
[3] = second compound 0.01 µM, first compound 0.0316 µM
[4] = second compound 0.01 µM, first compound 0.1 µM
[5] = second compound 0.0316 µM, first compound 0.0316 µM
[6] = second compound 0.0316 µM, first compound 0.1 µM
[7] = second compound 0.1 µM, first compound 0.0316 µM
[8] = second compound 0.1 µM, first compound 0.1 µM
[9] = second compound 0.316 µM, first compound 0.0316 µM
[10] = second compound 0.316 µM, first compound 0.1 µM
[11] = second compound 1 µM, first compound 0.0316 µM
[12] = second compound 1 µM, first compound 0.1 µM

CC(C)n1nc(-c2ccc3oc(N)nc3c2)c2c(N)ncnc21 + COc1c(OCCCN2CCOCC2)ccc2c3n(c(=NC(=O)c4cnc(N)nc4)nc12)CCN3 was tested, and the IC50 (second compound 0.00316 µM) was 46.8 nM, the IC50 (second compound 0.01 µM) was 19.5 nM and the IC50 (second compound 0.0316 µM) was 5.36 nM. The IC50 (second compound 0.1 µM) was less than 0.316 nM, the IC50 (second compound 0.316 µM) was less than 0.316 nM and the IC50 (second compound 1 µM) was less than 0.316 nM. It also gave a viability, T/C (second compound 0.00316 µM, first compound 0.000316 µM) of 98.6%, a viability, T/C (second compound 0.00316 µM, first compound 0.001 µM) of 93.6% and a viability, T/C (second compound 0.00316 µM, first compound 0.00316 µM) of 83.9%. It also gave a viability, T/C (second compound 0.00316 µM, first compound 0.01 µM) of 76.1%, a viability, T/C [1] of 55.6% and a viability, T/C [2] of 36.9%. It also gave a viability, T/C (second compound 0.01 µM, first compound 0.000316 µM) of 78.3%, a viability, T/C (second compound 0.01 µM, first compound 0.001 µM) of 78.5% and a viability, T/C (second compound 0.01 µM, first compound 0.00316 µM) of 68.8%. It also gave a viability, T/C (second compound 0.01 µM, first compound 0.01 µM) of 58.3%, a viability, T/C [3] of 44.3% and a viability, T/C [4] of 29.1%. The viability, T/C (second compound 0.0316 µM, first compound 0.000316 µM) was 57.7%, the viability, T/C (second compound 0.0316 µM, first compound 0.001 µM) was 59.3% and the viability, T/C (second compound 0.0316 µM, first compound 0.00316 µM) was 54.4%. The viability, T/C (second compound 0.0316 µM, first compound 0.01 µM) was 44.2%, the viability, T/C [5] was 32.2% and the viability, T/C [6] was 21.4%. The viability, T/C (second compound 0.1 µM, first compound 0.000316 µM) was 47%, the viability, T/C (second compound 0.1 µM, first compound 0.001 µM) was 45.8% and the viability, T/C (second compound 0.1 µM, first compound 0.00316 µM) was 40.1%. It also gave a viability, T/C (second compound 0.1 µM, first compound 0.01 µM) of 34.7%, a viability, T/C [7] of 26.6% and a viability, T/C [8] of 19.8%. The viability, T/C (second compound 0.316 µM, first compound 0.000316 µM) was 34.2%, the viability, T/C (second compound 0.316 µM, first compound 0.001 µM) was 31.5% and the viability, T/C (second compound 0.316 µM, first compound 0.00316 µM) was 28.9%. It also gave a viability, T/C (second compound 0.316 µM, first compound 0.01 µM) of 25.4%, a viability, T/C [9] of 21.9% and a viability, T/C [10] of 18.5%. It also gave a viability, T/C (second compound 1 µM, first compound 0.000316 µM) of 26%, a viability, T/C (second compound 1 µM, first compound 0.001 µM) of 23.9% and a viability, T/C (second compound 1 µM, first compound 0.00316 µM) of 23.8%. It also gave a viability, T/C (second compound 1 µM, first compound 0.01 µM) of 23%, a viability, T/C [11] of 24.5% and a viability, T/C [12] of 22.5%.

Work on CCCS(=O)(=O)Nc1ccc(F)c(C(=O)c2c[nH]c3ncc(-c4ccc(Cl)cc4)cc23)c1F + COc1c(OCCCN2CCOCC2)ccc2c3n(c(=NC(=O)c4cnc(N)nc4)nc12)CCN3 yielded an IC50 (second compound 0.00316 µM) of 5140 nM, an IC50 (second compound 0.01 µM) of 3480 nM and an IC50 (second compound 0.0316 µM) of 1650 nM. For the same molecule, the IC50 (second compound 0.1 µM) was less than 31.6 nM, the IC50 (second compound 0.316 µM) was less than 31.6 nM and the IC50 (second compound 1 µM) was less than 31.6 nM. For the same molecule, the viability, T/C [1] was 104%, the viability, T/C [2] was 103% and the viability, T/C (second compound 0.00316 µM, first compound 0.316 µM) was 96.6%. It also gave a viability, T/C (second compound 0.00316 µM, first compound 1 µM) of 76.5%, a viability, T/C (second compound 0.00316 µM, first compound 3.16 µM) of 63.1% and a viability, T/C (second compound 0.00316 µM, first compound 10 µM) of 34.8%. The viability, T/C [3] was 74.4%, the viability, T/C [4] was 91.3% and the viability, T/C (second compound 0.01 µM, first compound 0.316 µM) was 80.4%. The viability, T/C (second compound 0.01 µM, first compound 1 µM) was 67.6%, the viability, T/C (second compound 0.01 µM, first compound 3.16 µM) was 53% and the viability, T/C (second compound 0.01 µM, first compound 10 µM) was 32.3%. The viability, T/C [5] was 65.1%, the viability, T/C [6] was 64.7% and the viability, T/C (second compound 0.0316 µM, first compound 0.316 µM) was 62.7%. For the same molecule, the viability, T/C (second compound 0.0316 µM, first compound 1 µM) was 57%, the viability, T/C (second compound 0.0316 µM, first compound 3.16 µM) was 41% and the viability, T/C (second compound 0.0316 µM, first compound 10 µM) was 25.3%. It also gave a viability, T/C [7] of 48%, a viability, T/C [8] of 49.8% and a viability, T/C (second compound 0.1 µM, first compound 0.316 µM) of 50%. It also gave a viability, T/C (second compound 0.1 µM, first compound 1 µM) of 44.5%, a viability, T/C (second compound 0.1 µM, first compound 3.16 µM) of 34% and a viability, T/C (second compound 0.1 µM, first compound 10 µM) of 20.9%. The viability, T/C [9] was 34.8%, the viability, T/C [10] was 35.1% and the viability, T/C (second compound 0.316 µM, first compound 0.316 µM) was 34.4%. The viability, T/C (second compound 0.316 µM, first compound 1 µM) was 30.7%, the viability, T/C (second compound 0.316 µM, first compound 3.16 µM) was 24.4% and the viability, T/C (second compound 0.316 µM, first compound 10 µM) was 15.7%. The viability, T/C [11] was 28.2%, the viability, T/C [12] was 28.3% and the viability, T/C (second compound 1 µM, first compound 0.316 µM) was 26.7%. It also gave a viability, T/C (second compound 1 µM, first compound 1 µM) of 24.9%, a viability, T/C (second compound 1 µM, first compound 3.16 µM) of 20.3% and a viability, T/C (second compound 1 µM, first compound 10 µM) of 13.2%.
